Laboratory results as given in publication PMC8524854, “A novel dual-prodrug carried by cyclodextrin inclusion complex for the targeting treatment of colon cancer” (Journal of Nanobiotechnology, 2021).
Where two headings read alike, the source gives them in different places. Marks after values point to notes of the source that are not given here.

Experiments:
SW620 xenografts [1] = assay: TUNEL test of tumor tissue (apoptosis rate); type: in vivo, nude mice; settings: 15 days post-administration
Experimental: (§1) 15 days post-administration, all nude mice were sacrificed. The tumor tissues were collected, stained with H&E, and observed under an inverted microscope (400 ×). In addition, the TUNEL test was performed to detect cell apoptosis. Meanwhile, the expressions of both VEGFR-3 and Ki-67 were detected by ELISA.

SW620 cells [2] = assay: MTT cell-growth inhibition; type: cell-based, human; settings: 24 h, 48 h, 72 h, 5-FU at 20 μg/mL
Experimental: (§2) CaCo-2 and SW620 cells were used as model cells to evaluate the anticancer effects in vitro. Single-cell suspension was prepared with DMEM containing 10% Gibco FBS and 1% penicillin–streptomycin. The cells were seeded in a 96-well plate (3500 cells/well) and incubated respectively for 24 h, 48 h, and 72 h at 37 °C with 5% CO2. […] The medium was removed, and cells were washed three times with PBS before incubation with MTT for 4 h at 37 °C. After the medium was removed, 100 μL of DMSO was added to the well for 10 min. The absorbance of the solution was measured at 570 nm by Multimode Reader (Bio Tek Synergy H1).

CaCo-2 cells = assay: MTT cell-growth inhibition; type: cell-based, human; settings: 24 h, 48 h, 72 h, 5-FU at 20 μg/mL
Experimental: as §2

SW620 xenografts [3] = assay: Pharmacodynamic evaluation, tumor growth inhibition; type: in vivo, BALB/C nude mice; settings: every two days for 7 times, tumor weight on day 25 post-implantation
Experimental: Ten days after tumor transplantation, the SW620 tumor-bearing mice were randomly divided into 8 groups with 5 mice in each group when the tumors reached about 100 mm^3. The animals were weighed before treatment, and the measurement was continued every 2 days. The two axes of the tumor were measured with a vernier micrometer (L, longest axis; W, shortest axis). Tumor volume (mm^3) was calculated as ½ (L × W^2). Anti-tumor activity was evaluated by tumor growth inhibition (TGI), which was the mean tumor weight (MTW) of the treated group (TG) relative to the saline-treated control group (CG) on day 15, as calculated according to the formula [47]. […].

VEGFR-3 = VEGFR-3 expression in tumor tissue; type: in vivo, nude mice; settings: tumor tissue of SW620 xenografts
Experimental: as §1

SW620 xenografts [4] = assay: H&E pathological analysis of tumor tissue (necrosis rate); type: in vivo, nude mice; settings: 15 days post-administration
Experimental: as §1

Ki-67 = Ki-67 expression in tumor tissue; type: in vivo, nude mice; settings: tumor tissue of SW620 xenografts
Experimental: as §1

Kunming mice = type: in vivo; settings: for Amount (start/end), survival: observed 14 d; for Bodyweight End: end of 14 d observation
Experimental: All animals were given a single oral gavage of 0.2 mL of different dosage forms, and their body weight was monitored every day. Meanwhile, the toxicity and mortality of all animals were observed every day. The conventional changes such as the cases of the diet, urine, and feces were recorded. On the 15th day after treatment, the blood of each group was collected from the heart and centrifuged at 1,000 × g for 10 min to collect serum. An automated biochemical analyzer was used to detect serum alanine aminotransferase (ALT), aspartate aminotransferase (AST), blood urea nitrogen (BUN), and creatinine (Cr). Meanwhile, the heart, liver, lung, and kidney were quickly excised, washed with normal saline, and weighed. The visceral index is estimated according to the following formula as Viscera Index (%) = Viscera Weight / Body Weight × 100. And then, all the tissues were fixed with 10% formalin and stained with hematoxylin & eosin (H&E) for pathological analysis.

[5] = Solubility observed during carrier synthesis; type: physicochemical; settings: water
[6] = Pharmacokinetics: butyric acid in plasma after gavage; type: in vivo, SW620 tumor-bearing BALB/C nude mice; settings: gavage 0.366 g/kg
Experimental: SW620 tumor-bearing mice were randomly divided into 3 groups (n = 5). […] The blood was collected respectively from the heart at 0.25, 0.5, 1, 2, 3, 4, 6, 8, 12, 24, 36, 48, and 72 h after administration. The whole blood was quickly centrifuged at 2000 × g for 5 min, and the upper plasma was precisely aspirated. Then 0.35 mL of methanol was added, vortexed for 2 min, and centrifuged at 3350 × g for 15 min. The supernatant was used to detect butyric acid by HPLC [45]. The pharmacokinetic parameters were calculated by non-compartmental analysis using Drug Analysis System (DAS 2.1.1, Shanghai, China).

[7] = In vitro release of BBA by dialysis method; type: physicochemical; settings: during the first 24 h, PBS with 0.5% Tween 80, pH 7.4, 37 °C
Experimental: Release of BBA from BBA/CM-β-CD and BBA/FA-PEG-CM-β-CD was investigated in vitro using the dialysis method. […] At different time points (0.25, 0.5, 1, 2, 3, 4, 6, 8, 12, 48, 72 and 96 h), 1.0 mL of release medium was removed and replaced with fresh medium.

SW620 cells [8] = assay: Cell cycle analysis, propidium iodide flow cytometry; type: cell-based, human; settings: 48 h
Experimental: For the cell cycle analysis, the cells in the different groups were washed three times with PBS and incubated with 1 mL of pre-cooled 70% alcohol at 4 °C for 24 h. After the cells were fixed, centrifuged at 300 × g for 5 min to collect the cells. 1 mL of cold PBS was added to re-suspend the cells and centrifuged at 300 × g for 5 min to remove the supernatant. 10 μL of RNaseA (50 ×) and 25 μL of propidium iodide (20 ×) in 0.5 mL of buffer were added. Finally, flow cytometry was used for cell cycle detection.

SW620 cells [9] = assay: Cell apoptosis, Annexin V/PI flow cytometry; type: cell-based, human; settings: 30 μM, 48 h
Experimental: For the cell apoptosis detection, the cells in the different groups were washed three times with PBS and incubated with Annexin V-FITC solution for 10 min. Then, flow cytometry analysis was performed to detect the FITC and PI fluorescent intensity and report the percentage of the cell population within each plot quadrant.

[10] = Kunming mice, single oral gavage
[11] = Kunming mice, before single oral gavage
[12] = serum, Kunming mice, 15th day after single oral gavage

Row | Compound | apoptosis rate (TUNEL) (SW620 xenografts [1]) | cell-proliferation inhibition effect (SW620 cells [2]) | cell-proliferation inhibition effect (CaCo-2 cells) | mean tumor inhibitory rate (SW620 xenografts [3]) | VEGFR-3 positive area (VEGFR-3) | average necrosis rate (SW620 xenografts [4]) | Amount (start/end), survival (Kunming mice; [10]) | ALT (Kunming mice; mouse, in vivo, po) | Average weight change rate (Kunming mice; mouse, in vivo, po) | Bodyweight Start (Kunming mice; mouse, in vivo, po) | Cr (Kunming mice; mouse, in vivo, po) | Bodyweight Start (Kunming mice; [11]) | Bodyweight End (Kunming mice; [10]) | ALT (Kunming mice; [12]) | AST (Kunming mice; [12]) | BUN (Kunming mice; [12]) | other results
1 | O=c1[nH]cc(F)c(=O)[nH]1 [5-FU, 5-fluorouracil] | 8.87% | drastically enhanced the cell proliferation inhibition rate compared with the BBA group | drastically enhanced the cell proliferation inhibition rate compared with the BBA group | 85.85% ± 2.89% | significantly reduced | 50% | 5/5 | 292.50 ± 6.60 U/L | − 4.46* % | 18.82 ± 0.61 g | 7.45 ± 2.91 µmol/L |  |  |  |  |  | Ki-67 positive expression (Ki-67): significant decrease of the positive expression; serum biochemical analysis indexes (Kunming mice; mouse, in vivo): AST and ALT increased significantly; AST (Kunming mice; mouse, in vivo, po): 254.00 ± 53.4 U/L; BUN (Kunming mice; mouse, in vivo, po): 6.92 ± 1.20 mmol/L; Heart index (Kunming mice; mouse, in vivo, po): 0.81 ± 0.28%; Lung index (Kunming mice; mouse, in vivo, po): 0.85 ± 0.11%; decrease of average body weight (Kunming mice; mouse, in vivo, po): 4.46%
2 | Nc1ccc(O)c(C(=O)O)c1 [5-ASA, 5-aminosalicylic acid] | 2.44% |  |  | 31.33% ± 7.17% | significantly reduced | 15% | 5/5 | 23.20 ± 2.87 U/L | 4.63% | 18.58 ± 0.41 g | 9.55 ± 0.36 µmol/L |  |  |  |  |  | 
3 | CCCC(=O)[O-].[Na+] [NaB, sodium butyrate] | 1.45% |  |  | 15.30% ± 5.61% | significantly reduced | 10% | 5/5 |  |  |  |  | 18.24 ± 0.53 g | 19.14 ± 0.52 g | 17.37 ± 1.77 U/L | 58.17 ± 4.75 U/L | 8.60 ± 0.98 mmol/L | Average weight change rate (Kunming mice; Kunming mice, single oral gavage, start to end): 4.93%
4 | Nc1nc2ncc(CNc3ccc(C(=O)N[C@@H](CCC(=O)O)C(=O)O)cc3)nc2c(=O)[nH]1 [FA, Folic acid] |  |  |  |  |  |  |  |  |  |  |  |  |  |  |  |  | solubility [5]: too poor
5 | 2-butyryl oxy-5-butylaminyl benzoic acid [BBA] | 3.27% | some cell-proliferation inhibition effect | some cell-proliferation inhibition effect | 41.76% ± 7.56% | significantly reduced | 20% | 5/5 |  |  |  |  | 18.48 ± 0.63 g | 18.16 ± 0.63 g | 18.53 ± 0.65 U/L | 57.27 ± 10.20 U/L | 6.32 ± 0.97 mmol/L | AUC0-t [6]: 219.263 ± 5.360 µg·h/mL; CL [6]: 0.21267 ± 0.00447 mL/min/kg; Cmax [6]: 35923 ± 826 ng/mL; MRT0-t [6]: 4.769 ± 0.115 h; in vitro accumulative release of BBA [7]: 90%; cell cycle arrest (SW620 cells [8]): mainly arrested at the G0/G1 phase; apoptotic rate including early apoptosis and late apoptosis (SW620 cells [9]): 32.21% ± 8.26%; Cr (Kunming mice; [12]): 8.63 ± 1.96 µmol/L
